The NIST ThermoML archive (doi:10.1016/j.jct.2006.06.005)

Experiments:
[1] = 101 kPa, Liquid
[2] = xn = mol fraction of the nth substance listed; conditions: 101 kPa, Liquid

CN1CCCC1=O [N-methylpyrrolidone]
[1]
Conditions	mass density [kg/m3]	viscosity [mPa·s]
303.15 K	1023.47	1.554
313.15 K	1014.55	1.332
323.15 K	1005.66	1.16
333.15 K	996.71	1.022
343.15 K	987.75	0.908
353.15 K	978.76	0.8127

CN1CCCC1=O [N-methylpyrrolidone] + C1CCCCC1
[2]
Conditions	mass density, 303.15 K [kg/m3]	mass density, 313.15 K [kg/m3]	mass density, 323.15 K [kg/m3]	mass density, 333.15 K [kg/m3]	viscosity, 303.15 K [mPa·s]	viscosity, 313.15 K [mPa·s]	viscosity, 323.15 K [mPa·s]	viscosity, 333.15 K [mPa·s]
x2 = 0	1023.47	1014.55	1005.66	996.71	1.554	1.332	1.16	1.022
x2 = 0.1157	989.9	980.96	972.02	963.06	1.394	1.206	1.056	0.931
x2 = 0.2275	958.38	949.41	940.41	931.37	1.28	1.106	0.965	0.854
x2 = 0.3355	928.85	919.78	910.71	901.57	1.194	1.032	0.9	0.791
x2 = 0.4398	901.35	892.21	883.02	873.78	1.132	0.973	0.843	0.739
x2 = 0.5409	875.71	866.43	857.14	847.77	1.073	0.92	0.791	0.692
x2 = 0.6386	851.53	842.17	832.77	823.29	1.011	0.866	0.746	0.648
x2 = 0.7332	828.73	819.29	809.79	800.2	0.953	0.813	0.699	0.608
x2 = 0.8249	807.41	797.92	788.36	778.69	0.895	0.76	0.655	0.573
x2 = 0.9138	787.37	777.85	768.22	758.49	0.843	0.72	0.623	0.544

CN1CCCC1=O [N-methylpyrrolidone] + Cc1ccccc1
[2]
Conditions	mass density [kg/m3]	viscosity [mPa·s]
303.15 K, x2 = 0	1023.47	1.554
303.15 K, x2 = 0.1071	1006.98	1.399
303.15 K, x2 = 0.2121	990.67	1.258
303.15 K, x2 = 0.3156	974.42	1.138
303.15 K, x2 = 0.4177	958.02	1.021
303.15 K, x2 = 0.5185	941.54	0.923
303.15 K, x2 = 0.6174	925	0.822
303.15 K, x2 = 0.7151	907.95	0.727
303.15 K, x2 = 0.8114	890.99	0.65
303.15 K, x2 = 0.9064	874.21	0.566
313.15 K, x2 = 0	1014.55	1.332
313.15 K, x2 = 0.1071	998.03	1.21
313.15 K, x2 = 0.2121	981.67	1.088
313.15 K, x2 = 0.3156	965.37	0.991
313.15 K, x2 = 0.4177	948.91	0.89
313.15 K, x2 = 0.5185	932.4	0.803
313.15 K, x2 = 0.6174	915.81	0.719
313.15 K, x2 = 0.7151	898.7	0.642
313.15 K, x2 = 0.8114	881.69	0.575
313.15 K, x2 = 0.9064	864.87	0.516
323.15 K, x2 = 0	1005.66	1.16
323.15 K, x2 = 0.1071	989.08	1.061
323.15 K, x2 = 0.2121	972.67	0.956
323.15 K, x2 = 0.3156	956.3	0.87
323.15 K, x2 = 0.4177	939.78	0.783
323.15 K, x2 = 0.5185	923.24	0.71
323.15 K, x2 = 0.6174	906.6	0.639
323.15 K, x2 = 0.7151	889.42	0.572
323.15 K, x2 = 0.8114	872.36	0.514
323.15 K, x2 = 0.9064	855.48	0.463
333.15 K, x2 = 0	996.71	1.022
333.15 K, x2 = 0.1071	980.08	0.932
333.15 K, x2 = 0.2121	963.63	0.844
333.15 K, x2 = 0.3156	947.17	0.766
333.15 K, x2 = 0.4177	930.61	0.695
333.15 K, x2 = 0.5185	914.01	0.632
333.15 K, x2 = 0.6174	897.3	0.57
333.15 K, x2 = 0.7151	880.06	0.514
333.15 K, x2 = 0.8114	862.94	0.463
333.15 K, x2 = 0.9064	845.99	0.418
343.15 K, x2 = 0	987.75	0.908
343.15 K, x2 = 0.1071	971.08	0.844
343.15 K, x2 = 0.2121	954.56	0.751
343.15 K, x2 = 0.3156	938.03	0.683
343.15 K, x2 = 0.4177	921.4	0.622
343.15 K, x2 = 0.5185	904.74	0.566
343.15 K, x2 = 0.6174	887.95	0.518
343.15 K, x2 = 0.7151	870.65	0.464
343.15 K, x2 = 0.8114	853.44	0.418
343.15 K, x2 = 0.9064	836.42	0.379
353.15 K, x2 = 0	978.76	0.8127
353.15 K, x2 = 0.1071	962	0.7651
353.15 K, x2 = 0.2121	945.42	0.6769
353.15 K, x2 = 0.3156	928.81	0.617
353.15 K, x2 = 0.4177	912.13	0.5616
353.15 K, x2 = 0.5185	895.4	0.513
353.15 K, x2 = 0.6174	878.51	0.464
353.15 K, x2 = 0.7151	861.11	0.422
353.15 K, x2 = 0.8114	843.83	0.381
353.15 K, x2 = 0.9064	826.71	0.347
